Experimental data taken from patent publication US20260364077A1, “Method for Predicting Success in Test Subject of Cancer Treatment Drug Which Regulates Splicing Function” (NATIONAL CANCER CENTER, priority 2022, published 2026).

Columns and labels:
RBM39 (CAPERα) = settings: mechanism of action; Non Patent Literature 1; cited from earlier work
DLD-1 cells (parental) = assay: Growth inhibition of DLD-1 cells (parental), 12-day culture, photographed (Example 3); format: cell-based; settings: day 12
Experimental: (§1) DLD-1 cells (parental), DLD-1-BRCA2 KO (BRCA2 KO), or DLD-1-BRCA2 KO+BRCA2 WT (BRCA2 KO+WT) were seeded at 3×10^3 cells per well in a 6-well plate and incubated at 37 °C under 5% CO2. After removing the medium, a medium containing no drug, or containing 100 nM E7820, 1 μM E7820, 1 μM Indisulam (E7070), or 1 μM olaparib was added, and the cells were cultured at 37 °C under 5% CO2. The medium was replaced with fresh medium containing the same concentration of the drug on days 3, 6, and 9, with the day of drug addition being day 0. On day 12, the cells were photographed, and the sensitivity of the cells to each drug was evaluated.

[1] = tested on: DLD-1-BRCA2 KO+BRCA2 WT (BRCA2 KO+WT); assay: Growth inhibition of DLD-1-BRCA2 KO+BRCA2 WT, 12-day culture, photographed (Example 3); format: cell-based; settings: 1 μM; day 12
Experimental: as §1

[2] = tested on: DLD-1-BRCA2 KO (BRCA2 KO); assay: Growth inhibition of DLD-1-BRCA2 KO, 12-day culture, photographed (Example 3); format: cell-based; settings: 1 μM; day 12
Experimental: as §1

γH2AX in wild-type DLD-1 = assay: Induction of DNA double-strand breaks (γH2AX Western blotting) in wild-type DLD-1 (Example 4); format: cell-based; settings: 1 μM; 72 hours
Experimental: DLD-1 cells (parental), DLD-1-BRCA2 KO (BRCA2 KO), or DLD-1-BRCA2 KO+BRCA2 WT (BRCA2 KO+WT) were seeded at 1×10^6 cells per well in a 6-well plate and incubated at 37 °C under 5% CO2. After removing the medium, a medium containing no drug, or containing 1 μM E7820, 1 μM Indisulam (E7070), or 1 μM olaparib was added, and the cells were cultured at 37 °C under 5% CO2 for 72 hours. After removing the medium, the cells were washed with PBS, cooled on ice, and RIPA buffer (containing protease and phosphatase inhibitors, Proteintech) was added. The cells were collected using a cell scraper. The collected samples were incubated on ice for 30 minutes, then centrifuged at 12,000×g for 15 minutes at 4 °C to pellet the cell debris. The supernatant was transferred to a new microtube without touching the pellet to obtain the lysate. The obtained lysate was used for SDS-PAGE, membrane transfer, and Western blotting to evaluate the induction of DNA double-strand breaks. The antibodies used for Western blotting were Anti-phospho-Histone H2A.X (Ser139) Antibody (anti-yH2AX antibody, cat #05-636, Sigma-Aldrich) and GAPDH (14C10) Rabbit mAb (anti-GAPDH antibody, cat #2118, Cell Signaling Technology).

[3] = tested on: PDX tumors (cholangiocarcinoma, pancreatic cancer, gastric cancer, endometrial cancer, uterine sarcoma); assay: Therapeutic effect of E7820 in patient-derived xenograft (PDX) mouse models and relationship with gene mutations (Example 1); format: in vivo, human patient-derived tumors in NOG mice
Experimental: In 30 cases of patient-derived xenograft (PDX) mouse models, the therapeutic effect of the cancer therapeutic E7820 that regulates splicing function and the presence or absence of various gene mutations were evaluated.
PDX model mice were prepared by transplanting 2-3 mm square PDX tumor fragments subcutaneously into the back of test animals and allowing them to grow. The test animals used were NOD.Cg-Prkdcscidll2rgtmlSug/ShiJic (NOG mice), female, and 6 weeks old or older. Tumor tissues from 30 patients, including 9 cases of cholangiocarcinoma, 9 cases of pancreatic cancer, 6 cases of gastric cancer, 3 cases of endometrial cancer, and 3 cases of uterine sarcoma, were used as tumor tissues. Grouping was performed when the average tumor volume of the experimental animals reached a size suitable for grouping (approximately 200 mm^3), with each group consisting of n=3-5 mice.
From the day of grouping, E7820 was administered orally at a dose of 100 mg/kg once daily to the 30 PDX model mice prepared in 1-1. Body weight and tumor volume were measured twice a week during the observation period from the day before drug administration and from the day drug administration started (day 0) to day 21. Tumor volume was measured by measuring the long and short diameters of the tumor using calipers and calculating the tumor volume according to the following formula. For animals with no detectable tumor, the tumor volume was set to 0.00 mm^3.
Tumor volume (mm^3)=½×long diameter (mm)×short diameter (mm)×short diameter (mm)
Whole exome sequencing (WES), one of the next-generation sequencing methods, was performed on genomic DNA extracted from the PDX using the NovaSeq 6000 system (Illumina), and mutation analysis was conducted.

[4] = 100 mg/kg orally once daily, day 21, among 14 cases with tumor reduction
[5] = 100 mg/kg orally once daily, day 21, among 16 cases without tumor reduction

| Compound | promotion of the proteasomal degradation of RBM39 (RBM39 (CAPERα)) | growth inhibitory effect (DLD-1 cells (parental); 1 pM (so in the source)) | growth inhibitory effect [1] | growth of surviving cells [1] | growth inhibitory effect [2] | induction of cell death [2] | remaining cells [2] | growth inhibitory effect (DLD-1 cells (parental); 1 μM) | γH2AX levels (γH2AX in wild-type DLD-1) | growth inhibitory effect (DLD-1 cells (parental); 100 nM) | number of cases with mutations in one or more of BRCA1, BRCA2, ATM, ATR, and BAP1 among the 14 cases with tumor reduction effect [3, 4] [cases] | percentage of cases with mutations in one or more of BRCA1, BRCA2, ATM, ATR, and BAP1 among the 14 cases with tumor reduction effect [3, 4] [%] | number of cases with mutations in one or more of the five genes among the 16 cases without tumor reduction effect [3, 5] [cases] | percentage of cases with mutations in one or more of the five genes among the 16 cases without tumor reduction effect [3, 5] [%] | PDX model mice in which the tumor volume on day 21 was smaller than on day 0 (tumor reduction effect) ([3]; 100 mg/kg orally once daily, day 21 vs day 0) | cases in which no tumor reduction effect was observed ([3]; 100 mg/kg orally once daily, day 21 vs day 0, 30 PDX models) [cases] | tumor reduction effect in model mouse transplanted with a tumor having a mutation in a homologous recombination repair-related gene ([3]; PDX model mouse, tumor with mutation in homologous recombination repair-related gene) |
| --- | --- | --- | --- | --- | --- | --- | --- | --- | --- | --- | --- | --- | --- | --- | --- | --- | --- |
| Nc1ccc(S(=O)(=O)Nc2cnc3c(Cl)cccc3n2)cc1 [NSC339004, 4-amino-N-(5-chloroquinoxalin-2-yl)benzenesulfonamide] | promotion of the proteasomal degradation of RBM39 | – | – | – | – | – | – | – | – | – | – | – | – | – | – | – | – |
| NS(=O)(=O)c1ccc(S(=O)(=O)Nc2cccc3c(Cl)c[nH]c23)cc1 [Indisulam, N-(3-chloro-1H-indol-7-yl)-4-sulfamoylbenzenesulfonamide] | promotion of the proteasomal degradation of RBM39 | no growth inhibitory effect was observed | growth inhibitory effects were observed | the growth of surviving cells was observed | significant growth inhibitory effects | induction of cell death were observed | almost no remaining cells | – | – | – | – | – | – | – | – | – | – |
| O=C(c1cc(Cc2n[nH]c(=O)c3ccccc23)ccc1F)N1CCN(C(=O)C2CC2)CC1 [olaparib] | – | – | growth inhibitory effects were observed | the growth of surviving cells was observed | significant growth inhibitory effects | induction of cell death were observed | almost no remaining cells | no growth inhibitory effect was observed | increase in γH2AX levels | – | – | – | – | – | – | – | – |
| Cc1ccc(NS(=O)(=O)c2cccc(C#N)c2)c2[nH]cc(C#N)c12 [E7820, N-(3-cyano-4-methyl-1H-indol-7-yl)-3-cyanobenzenesulfonamide] | promotion of the proteasomal degradation of RBM39 | – | growth inhibitory effects were observed | the growth of surviving cells was observed | significant growth inhibitory effects | induction of cell death were observed | almost no remaining cells | no growth inhibitory effect was observed | – | no growth inhibitory effect was observed | 11 | 79 | 3 | 19 | 14 out of the 30 PDX model mice | 16 | high tumor reduction effect |
